The values below come from patent US20200046619A1, “Deodorizing Composition Comprising Zinc Neodecanoate” (GIVAUDAN SA, priority 2016, published 2020).

Series [1] has as its system subject's axilla malodour. As to the kind of experiment: Sensory test comparing zinc neodecanoate and zinc ricinoleate: perceived malodour intensity of axillae rated by trained panel. In kind it is in vivo, human. Particulars: for perceived malodour intensity: 0-100 line scale, 24 hours after application of 1.0 g aerosol (4% zinc salt, 12% cyclomethicone, 84% propellant) to axilla, 10 male subjects. How it is done: Aerosols were prepared using the following two test formulations, respectively: • 4% zinc neodecanoate, 12% cyclomethicone, 84% propellant • 4% zinc ricinoleate, 12% cyclomethicone, 84% propellant (propellant=isobutane/propane mix)
5 days prior to testing, the male subjects substituted their normal body wash with an unperfumed product (Sanex 0% Bodywash) and were asked to only use a specific deodorant supplied (Lynx Attract for Him).
On the morning before the test, the male subjects were asked to shower using an unperfumed shower gel provided and not use any antiperspirant product or apply any other fragranced products.
Subjects reported to a panel suite in the morning in two groups for test product application.
The administrator applied 1.0 g of each product to each subject's axilla. Each subject wore both of the test formulations (one on each axilla region). The manner in which each test formulation was applied (left or right axilla) was randomised. Each of a subject's axilla was then coded with a random code number.
The subjects were asked not to shower until after the test had been completed the next day. The subjects were also provided with a list of rules, by which they had to abide for the duration of the test. The rules included no swimming and no gym activity between test formulation application and assessment.
The subjects' axillae were thereafter tested by sensory panellists. The members of the sensory panels had been selected on a basis of their olfactory sensory acuity and had thereafter received training for a period of 4-6 months. […]
The sensory panellists were asked to rate the perceived malodour intensity for each of the subject's axilla using a 0-100 line scale. The order of samples assessed was pre-determined using a balanced randomisation. The axillae were assessed in a sequential monadic way. […]
The subjects were separated into two groups to be assessed by the panellists and each group was assessed by 22 panellists.
The data was analysed using an analysis of variance and multiple comparison test with a confidence level of 95%.

A short description of series [2]: Solubility test of zinc salts in model aerosol base formulation. Conditions: 4% zinc salt, 12% cyclomethicone, 84% pentane; agitated several hours at room temperature, stood overnight. The class given is physicochemical. From the text:
The solubility of several zinc salts was explored using the following model aerosol base formulation: • 4% zinc salt • 12% cyclomethicone • 84% pentane
(Pentane was used as a surrogate for isobutane/propane mix as it is easier to handle in a laboratory.)
Each salt and aerosol formulation was placed in a sealed glass vial that was agitated for several hours at room temperature. The resulting suspensions/solutions were allowed to stand overnight and any remaining solid matter present was noted.

Series [3] in a line: White marks: visible solid residue on black cloth after aerosol spraying. Particulars: approximately 3 g aerosol (4% zinc neodecanoate, 12% cyclomethicone, 84% propellant) dispensed; compared with zinc ricinoleate and aluminium chlorohydrate aerosols. The class given is physicochemical. The protocol:
Aerosols were prepared using the following three test formulations, respectively: • 4% zinc neodecanoate, 12% cyclomethicone, 84% propellant • 4% zinc ricinoleate, 12% cyclomethicone, 84% propellant • 10% aluminium chlorohydrate, 0.8% disteardimonium hectorite, 12% cyclomethicone, 76.2% propellant (propellant=isobutane/propane mix)
Several card templates were prepared where a large X-shaped hole was present in each template. Each template was then placed over a black piece of cloth. The aerosols were shaken well, and then approximately 3 g of one of the three aerosols was dispensed over each template hole. Several minutes were allowed for any propellant to evaporate and the presence of any visible solid residues was noted.

As for zinc neodecanoate, the perceived malodour intensity in series [1] is on record as 12.1 (+/−0.8). For the same substance, the “malodour intensity compared with underarms treated with zinc ricinoleate” value in series [1] (analysis of variance and multiple comparison test, confidence level 95%, 24 hours after application) is recorded as “significantly lower malodour intensity”. The “remaining solid matter present (solubility)” value in series [2] was “without any solid present”. In addition, the “visible solid residue on black cloth” value in series [3] is “did not leave a powdered residue”.

With zinc ricinoleate [reference compound], the perceived malodour intensity in series [1] is 14.0 (+/−0.8).
